In PMC3100252, “A theoretical entropy score as a single value to express inhibitor selectivity” (BMC Bioinformatics, 2011):
Like-named read-outs stand apart in the source and are kept apart here.

Legend:
[1] = system: 290 kinases (excluding mutants); conditions: cited from earlier work
[2] = system: 290 kinases (excluding mutants); type: binding; conditions: for Ka-Gini: Gini score calculated directly on Kas of the Ambit dataset (Kds of ref 5); for entropies (selectivity entropy, Ssel): calculated from Kds of the Ambit dataset (ref 5); for entropies (selectivity entropy, Ssel) / number of kinases inhibited below 3 μM: 290 kinases; for number of kinases inhibited below 3 μM: Ambit profile; for selectivity rank by Ka-Gini / selectivity rank by Pmax / selectivity rank by selectivity entropy: rank among 38 inhibitors, Ambit dataset
Description: Having defined the entropy, we next investigated its performance relative to the most widely-used methods, on a public profiling dataset of 38 inhibitors on 290 non-mutant kinases (Table 1 and Additional file 1). […] To this we added a Ka-Gini value and the selectivity entropy. The Ka-Gini is a Gini score directly calculated on Kas, without reverting to %-inhibition values (see below). […] In addition, to get an overview of the profiling raw data, we appended an activity-based heat map (Uitdehaag_S1).
(§1) It is worth to note that the partition coefficient is the same as ϕl in our entropy equation (eq. 2).
The Gini score was calculated from data on %-inhibition. […] In addition, to work more directly with Kds, we also introduce a Ka-Gini score, in which association constants are used for rank-ordering the kinase profile. […] All calculations were done in Microsoft Excel. […]

[3] = system: 222 human kinases; experiment: Millipore kinase profiling (radioactive filter binding activity assay at [ATP] = KM,ATP) and selectivity metrics calculated from it; type: biochemical; parameters: selectivity score: scale not given here; conditions: for Ka-Gini score / Pmax / S10x / selectivity score: calculated from Millipore activity data; for selectivity entropy: calculated from Millipore activity data (pEC50), [ATP] = KM,ATP
Description: As a next step we selected 16 compounds from the public profile (Ambit), and measured activity data on these using a different profiling service (Millipore, data available as Additional file 2). […] Also for these new data, we calculated the selectivity metrics (Uitdehaag_S2). In the ideal case, the selectivity values are similar irrespective of profiling technology (in the same way that a Kd value is ideally independent of laboratory and assay format). The data of both methods are plotted in Figure 2.
as §1
The Gini score was calculated from data on %-inhibition. […] In addition, to work more directly with Kds, we also introduce a Ka-Gini score, in which association constants are used for rank-ordering the kinase profile. […] All calculations were done in Microsoft Excel.
For comparing profiles across methods (Figure 2), we selected 16 kinase inhibitors of the Ambit profile (Table 2) and submitted these to the kinase profiling service from Millipore (http://www.millipore.com/drugdiscovery/svp3/kpservices, data available as Additional file 2). Both profiling methods are described earlier and differ (among other variations) in the following way: Ambit uses a competitive binding setup in absence of ATP on kinases from T7 or HEK293 expression systems. Millipore uses a radioactive filter binding activity assay, with kinases purified from Escherichia coli or baculovirus expression systems.

[4] = Ambit dataset, 38 inhibitors on 290 non-mutant kinases, values taken from earlier work
[5] = Ambit dataset, fraction of kinases hit at 10 times the Kd of the target, values taken from earlier work
[6] = Ambit dataset, fraction of kinases hit below 3 μM, values taken from earlier work
[7] = Ambit dataset, values taken from earlier work

Structure (SMILES) | Gini [1, 4] | S10x [1, 5] | Pmax (partition index) [1, 7] | Ka-Gini [2] | entropies (selectivity entropy, Ssel) [2] | Ka-Gini score [3] | Pmax [3] | S10x [3] | further results
COc1ccc(COc2ccc(Cc3cnc(N)nc3N)cc2OC)cc1 [GW-2580] | 0.54 | 0.00 | 0.92 | 0.99 | 0.26 | – | – | – | S3uM (selectivity score S(3 μM)) [1, 6]: 0.01
CCOc1cc2ncc(C#N)c(Nc3ccc(F)c(Cl)c3)c2cc1NC(=O)/C=C/CN(C)C [EKB-569] | 0.78 | 0.00 | 0.67 | 0.99 | 0.89 | – | – | – | S3uM (selectivity score S(3 μM)) [1, 6]: 0.18
C[C@@H]1CCN(C(=O)CC#N)C[C@@H]1N(C)c1ncnc2[nH]ccc12 [CP-690550, tasocitinib] | 0.66 | – | – | – | – | 0.995 | 0.481 | 0.005 | –
Cc1cc(Nc2cc(N3CCN(C)CC3)nc(Sc3ccc(NC(=O)C4CC4)cc3)n2)[nH]n1 [VX-680, tozasertib] | 0.76 | 0.03 | 0.15 | 0.93 | 3.09 | 0.972 | 0.278 | 0.020 | selectivity score [3]: 0.199; selectivity entropy [3]: 2.625; S3uM (selectivity score S(3 μM)) [1, 6]: 0.38
Oc1ccc(-c2nc(-c3ccncc3)c(-c3ccc(F)cc3)[nH]2)cc1 [SB-202190] | 0.76 | 0.02 | 0.35 | 0.97 | 2.08 | – | – | – | S3uM (selectivity score S(3 μM)) [1]: 0.09
Cc1nc(Nc2ncc(C(=O)Nc3c(C)cccc3Cl)s2)cc(N2CCN(CCO)CC2)n1 [Dasatinib, dasatinib] | 0.79 | – | – | 0.93 | – | 0.943 | 0.041 | 0.070 | –
Cn1c(Nc2ccc(C(F)(F)F)cc2)nc2cc(Oc3ccnc(-c4ncc(C(F)(F)F)[nH]4)c3)ccc21 [CHIR265] | 0.74 | – | – | 0.96 | – | 0.982 | 0.304 | 0.014 | –
CN1CC[C@H](c2c(O)cc(O)c3c(=O)cc(-c4ccccc4Cl)oc23)[C@H](O)C1 [Flavopiridol] | 0.77 | – | – | 0.95 | – | – | – | – | –
CCN1CCN(Cc2ccc(NC(=O)Nc3ccc(Oc4cc(NC)ncn4)cc3)cc2C(F)(F)F)CC1 [AST-487] | 0.73 | 0.04 | 0.11 | 0.95 | 2.74 | – | – | – | S3uM (selectivity score S(3 μM)) [1, 6]: 0.45
CN[C@@H]1C[C@H]2O[C@@](C)([C@@H]1OC)n1c3ccccc3c3c4c(c5c6ccccc6n2c5c31)C(=O)NC4 [Staurosporine] | 0.35 | 0.50 | – | – | – | – | – | – | –
O=C(NOC[C@H](O)CO)c1ccc(F)c(F)c1Nc1ccc(I)cc1F [PD-0325901] | – | – | – | – | – | 1.000 | 0.857 | 0.002 | selectivity score [3]: 0.005; selectivity entropy [3]: 0.550
Clc1ccc(Nc2nnc(Cc3ccncc3)c3ccccc23)cc1 [PTK-787] | – | – | – | – | – | – | – | – | Gini [1]: 0.71
Cn1cnc2c(F)c(Nc3ccc(Br)cc3Cl)c(C(=O)NOCCO)cc21 [AZD6244] | – | – | – | – | – | 1.000 | 0.999 | 0.002 | selectivity entropy [3]: 0.020
CCN(CCO)CCCOc1ccc2c(Nc3cc(CC(=O)Nc4cccc(F)c4)[nH]n3)ncnc2c1 [AZD1152HQPA] | 0.78 | 0.02 | 0.34 | 0.98 | 1.91 | 0.993 | 0.603 | 0.007 | selectivity score [3]: 0.041; selectivity entropy [3]: 1.366; S3uM (selectivity score S(3 μM)) [1, 6]: 0.10
COc1cc2c(N3CCN(C(=O)Nc4ccc(OC(C)C)cc4)CC3)ncnc2cc1OCCCN1CCCCC1 [MLN-518, tandutinib] | 0.74 | 0.01 | 0.26 | 0.98 | 1.58 | 0.993 | 0.621 | 0.005 | selectivity score [3]: 0.032; selectivity entropy [3]: 1.300; potencies on the 4 kinases hit with roughly equal potencies ([1]; Ambit profile, 4 kinases not named): 2 to 10 nM; S3uM (selectivity score S(3 μM)) [1]: 0.06; number of kinases inhibited below 3 μM [2]: 10 kinases; selectivity rank by Ka-Gini [2]: 14; selectivity rank by Pmax [2]: 26; selectivity rank by selectivity entropy [2]: 15
CC1(C)CNc2cc(NC(=O)c3cccnc3NCc3ccncc3)ccc21 [AMG-706] | 0.82 | 0.04 | 0.22 | 0.97 | 2.36 | – | – | – | S3uM (selectivity score S(3 μM)) [1]: 0.09

Structure (SMILES) | Gini [1, 4] | S10x [1, 5] | Pmax (partition index) [1, 7] | Ka-Gini [2] | entropies (selectivity entropy, Ssel) [2] | Ka-Gini score [3] | Pmax [3] | S10x [3] | further results
COc1cc2ncnc(Nc3ccc(F)c(Cl)c3)c2cc1OCCCN1CCOCC1 [Gefitinib] | 0.65 | – | – | – | – | – | – | – | –
COCC(=O)NC/C=C/c1ccc2ncnc(Nc3ccc(Oc4ccc(C)nc4)c(C)c3)c2c1 [CP-724714] | 0.49 | 0.01 | 0.33 | 0.99 | 1.10 | – | – | – | S3uM (selectivity score S(3 μM)) [1, 6]: 0.02
CO[C@@H]1[C@H](N(C)C(=O)c2ccccc2)C[C@H]2O[C@]1(C)n1c3ccccc3c3c4c(c5c6ccccc6n2c5c31)C(=O)NC4 [PKC-412] | 0.71 | – | – | 0.88 | – | – | – | – | –
C#Cc1cccc(Nc2ncnc3cc(OCCOC)c(OCCOC)cc23)c1 [Erlotinib] | 0.75 | 0.00 | 0.67 | 0.99 | 0.88 | – | – | – | S3uM (selectivity score S(3 μM)) [1]: 0.15
C=CC(=O)Nc1cc2c(Nc3ccc(F)c(Cl)c3)ncnc2cc1OCCCN1CCOCC1 [CI-1033] | 0.72 | – | – | 0.99 | – | – | – | – | –
CS(=O)(=O)CCNCc1ccc(-c2ccc3ncnc(Nc4ccc(OCc5cccc(F)c5)c(Cl)c4)c3c2)o1 [Lapatinib] | 0.57 | – | – | 0.99 | – | – | – | – | –
Nc1nc(Nc2ccc(S(N)(=O)=O)cc2)nn1C(=O)c1c(F)cccc1F [JNJ-7706621] | 0.74 | 0.08 | 0.10 | 0.87 | 3.73 | – | – | – | S3uM (selectivity score S(3 μM)) [1]: 0.37
Cc1ccc(Nc2nccc(N(C)c3ccc4c(C)n(C)nc4c3)n2)cc1S(N)(=O)=O [GW-786034] | 0.80 | 0.02 | 0.33 | 0.97 | 2.06 | – | – | – | S3uM (selectivity score S(3 μM)) [1, 6]: 0.21
CC(C)(C)c1cnc(CSc2cnc(NC(=O)C3CCNCC3)s2)o1 [SNS-032] | – | – | – | 0.97 | – | – | – | – | –
CN1CCN(c2ccc3nc(-c4c(N)c5c(F)cccc5[nH]c4=O)[nH]c3c2)CC1 [CHIR-258] | 0.76 | 0.01 | – | 0.97 | – | – | – | – | –
Cc1cn(-c2cc(NC(=O)c3ccc(C)c(Nc4nccc(-c5cccnc5)n4)c3)cc(C(F)(F)F)c2)cn1 [nilotinib] | – | – | – | – | – | 0.980 | 0.208 | 0.027 | selectivity score [3]: 0.095; selectivity entropy [3]: 2.360
Cc1ccc(NC(=O)c2ccc(CN3CCN(C)CC3)cc2)cc1Nc1nccc(-c2cccnc2)n1 [Imatinib, imatinib] | – | – | – | – | – | – | – | – | Gini [1]: 0.79; S10x [1]: 0.02
CN(C)C[C@@H]1CCn2cc(c3ccccc32)C2=C(C(=O)NC2=O)c2cn(c3ccccc23)CCO1 [LY-333531] | 0.76 | – | – | 0.98 | – | – | – | – | –
NC(=O)c1ccc(-c2nc(-c3ccc4c(c3)OCO4)c(-c3ccccn3)[nH]2)cc1 [SB-431542] | 0.42 | 0.01 | 0.14 | 0.98 | 1.56 | – | – | – | S3uM (selectivity score S(3 μM)) [1, 6]: 0.02; IC50 ([1]; Ambit profile, four kinases not named, read-out: IC50s on the four kinases hit with very similar IC50s): 100 to 300 nM; number of kinases inhibited below 3 μM [2]: 5 kinases; selectivity rank by Ka-Gini [2]: 15; selectivity rank by Pmax [2]: 31; selectivity rank by selectivity entropy [2]: 14
C[S+]([O-])c1ccc(-c2nc(-c3ccncc3)c(-c3ccc(F)cc3)[nH]2)cc1 (stereo not drawn) [SB-203580] | 0.77 | 0.02 | – | – | – | 0.987 | 0.342 | 0.016 | –
